Assay results published in ChEMBL document CHEMBL1136595, “Oximino-piperidino-piperidine-based CCR5 antagonists. Part 2: synthesis, SAR and biological evaluation of symmetrical heteroaryl carboxamides” (Bioorg Med Chem Lett, 2003).

Tests used:
[1] = target: C-C chemokine receptor type 5 (Homo sapiens, UniProt P51681); experiment: Inhibition of [125I]RANTES binding to CCR5 receptor.
[2] = Area under curve after peroral administration at 10 mg/kg in rat for 0-6 h; type: ADME, organism-based; parameters: time < 6 hr, dose 10 mg/kg, route oral; details: in vivo, po
[3] = tested on: Human immunodeficiency virus 1; experiment: Inhibition of HIV-1 (ADA) entry into U-87 (human glioblastoma) cells.; type: functional, organism-based; details: Human immunodeficiency virus 1, U-87 MG

Sequence of C-C chemokine receptor type 5 (P51681 whole entry): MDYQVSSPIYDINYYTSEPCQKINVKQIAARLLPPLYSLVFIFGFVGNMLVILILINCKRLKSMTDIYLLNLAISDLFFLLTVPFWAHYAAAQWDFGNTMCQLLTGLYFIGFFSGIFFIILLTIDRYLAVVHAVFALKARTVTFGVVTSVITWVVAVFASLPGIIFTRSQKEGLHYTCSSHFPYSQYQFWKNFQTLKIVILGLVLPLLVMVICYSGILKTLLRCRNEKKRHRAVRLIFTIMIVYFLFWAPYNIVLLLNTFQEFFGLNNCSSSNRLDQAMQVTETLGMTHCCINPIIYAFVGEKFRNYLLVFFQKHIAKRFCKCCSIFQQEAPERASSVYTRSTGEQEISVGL

SMILES | Ki [1] | AUC at 6 h [2] | IC50 [3]
CCO/N=C(/c1ccc(Br)cc1)C1CCN(C2(C)CCN(C(=O)c3c(C)nc(C4CC4)nc3C)CC2)CC1 | 25 nM | – | –
CCO/N=C(/c1ccc(Br)cc1)C1CCN(C2(C)CCN(C(=O)c3c(C)nc(C(C)C)nc3C)CC2)CC1 | 43 nM | – | –
CCO/N=C(/c1ccc(Br)cc1)C1CCN(C2(C)CCN(C(=O)c3c(C)nc(NC(C)=O)nc3C)CC2)CC1 | 60 nM | – | –
CCCO/N=C(/c1ccc(Br)cc1)C1CCN(C2(C)CCN(C(=O)c3c(C)ncnc3C)CC2)CC1 | 2 nM | 1600 ng·h/mL | 0.89 nM
CCO/N=C(/c1ccc(Br)cc1)C1CCN(C2(C)CCN(C(=O)c3c(C)nc(SC)nc3C)CC2)CC1 | 1.3 nM | 400 ng·h/mL | –
CCO/N=C(/c1ccc(Br)cc1)C1CCN(C2(C)CCN(C(=O)c3c(C)nc(C(F)(F)F)nc3C)CC2)CC1 | 3.2 nM | 2000 ng·h/mL | 0.26 nM
Cc1ncnc(C)c1C(=O)N1CCC(C)(N2CCC(/C(=N\OC(C)C)c3ccc(Br)cc3)CC2)CC1 | 3.3 nM | 2400 ng·h/mL | 0.28 nM
Cc1ncnc(C)c1C(=O)N1CCC(C)(N2CCC(/C(=N\OCC(F)(F)F)c3ccc(Br)cc3)CC2)CC1 | 14 nM | 6900 ng·h/mL | 3.8 nM
CCO/N=C(/c1ccc(Br)cc1)C1CCN(C2(C)CCN(C(=O)c3c(C)nc(N)nc3C)CC2)CC1 | 5.7 nM | 3100 ng·h/mL | 0.35 nM
CO/N=C(\c1ccc(Br)cc1)C1CCN(C2(C)CCN(C(=O)c3c(C)ncnc3C)CC2)CC1 | 4.7 nM | 4100 ng·h/mL | 1.83 nM
CCO/N=C(\c1ccc(Br)cc1)C1CCN(C2(C)CCN(C(=O)c3c(C)c[n+]([O-])cc3C)CC2)CC1 | 8.8 nM | 1600 ng·h/mL | 0.4 nM
CCO/N=C(\c1ccc(Br)cc1)C1CCN(C2(C)CCN(C(=O)c3c(Br)c[n+]([O-])cc3Br)CC2)CC1 | 0.7 nM | 4400 ng·h/mL | 1.24 nM
CCO/N=C(\c1ccc(Br)cc1)C1CCN(C2(C)CCN(C(=O)c3c(C)cncc3C)CC2)CC1 | 2.3 nM | 1300 ng·h/mL | –
CCO/N=C(\c1ccc(Br)cc1)C1CCN(C2(C)CCN(C(=O)c3c(Cl)c[n+]([O-])cc3Cl)CC2)CC1 | 1.2 nM | 3900 ng·h/mL | 0.15 nM
CCO/N=C(/c1ccc(Br)cc1)C1CCN(C2(C)CCN(C(=O)c3c(C)nc(C)nc3C)CC2)CC1 | 2.1 nM | 2700 ng·h/mL | 0.93 nM
Cc1ncnc(C)c1C(=O)N1CCC(C)(N2CCC(/C(=N\OCC(C)C)c3ccc(Br)cc3)CC2)CC1 | 8.1 nM | 600 ng·h/mL | 1.17 nM
CCO/N=C(/c1ccc(Br)cc1)C1CCN(C2(C)CCN(C(=O)c3c(C)nc(NS(C)(=O)=O)nc3C)CC2)CC1 | 315 nM | – | –
CCO/N=C(/c1ccc(Br)cc1)C1CCN(C2(C)CCN(C(=O)c3c(C)nc(OC)nc3C)CC2)CC1 | 5.3 nM | 1800 ng·h/mL | 0.13 nM
Cc1ncnc(C)c1C(=O)N1CCC(C)(N2CCC(/C(=N\OCC3CC3)c3ccc(Br)cc3)CC2)CC1 | 11 nM | 3700 ng·h/mL | –
CCO/N=C(\c1ccc(Br)cc1)C1CCN(C2(C)CCN(C(=O)c3c(Br)cncc3Br)CC2)CC1 | – | 500 ng·h/mL | 1.04 nM
CCO/N=C(\c1ccc(Br)cc1)C1CCN(C2(C)CCN(C(=O)c3c(Cl)cncc3Cl)CC2)CC1 | – | 500 ng·h/mL | 0.69 nM
CCO/N=C(\c1ccc(Br)cc1)C1CCN(C2(C)CCN(C(=O)c3c(C)ncnc3C)CC2)CC1 | 2.2 nM | 3100 ng·h/mL | 0.36 nM
COC[C@@H](c1ccc(C(F)(F)F)cc1)N1CCN(C2(C)CCN(C(=O)c3c(C)ncnc3C)CC2)C[C@@H]1C [VICRIVIROC] | – | 6500 ng·h/mL | 0.6 nM
